Columns and labels:
[1] = system: pho operon genes in S. meliloti cells; experiment: Quantitative RT-PCR analysis of pho operon genes; format: cell-based; settings: for phoB regulatory gene expression (qRT-PCR): P-sufficient (13 mM K-phosphate), vs untreated 1021 cells
Procedure: FIG. S1. Quantitative RT-PCR analysis of pho operon genes in S. meliloti cells under P-sufficient conditions (13 mM K-phosphate). The relative expression level was >1 for genes more highly expressed in RD64 and in 1021 cells treated for 3 hours with 0.5 mM IAA, Ind, Trp, ICA and 2,4-D. The relative expression level was <1 for genes more highly expressed in 1021 cells (control). Error bars represent the standard deviation from three independent biological experiments.
FIG. 1. Quantitative RT-PCR analysis of pho operon genes expression in S. meliloti cells under P-starving conditions. The relative expression level was >1 for genes more highly expressed in RD64 and in 1021 cells treated for 3 hours with 0.5 mM IAA, Ind, Trp, ICA and 2,4-D. The relative expression level was <1 for genes more highly expressed in 1021 cells (control). Error bars represent the standard deviation from five independent biological experiments (p<0.05).
Total RNA from P-sufficient and P-starved cells was isolated as previously described (5). cDNA were synthesized with the StrataScript™ reverse transcription reagents (Stratagene) and random hexamers as primers. Quantitative PCR was performed with the Power SYBR PCR Master Mix (Applied Biosystems). Reactions were run on the iCycler iQ (Bio-Rad). The thermo cycling condition were: 15 min at 95° C., 40 cycles of denaturation at 95° C. for 20 s, annealing (20 s) and extension (35 s) at 72° C. Specific primer pairs, designed using the Primer3 software, are shown.
smc02641 and smc00128 were used as housekeeping genes for data normalization in the comparative Ct method as previously described (8). Phosphatase Activity

acid phosphatase = experiment: Acid phosphatase activity under P-starved conditions; format: cell-based, S. meliloti; settings: phosphate starvation; vs 1021 cells; compounds 0.5 mM, 3 hours at 30° C.
alkaline phosphatase = settings: phosphate starvation; vs 1021 cells; compounds 0.5 mM, 3 hours at 30° C.
Procedure: Acid (A) and alkaline (B) phosphatase activity in S. meliloti cells under P-starved conditions. Log-phase cells grown in a MOPS-buffered minimal medium (starting P concentration=13 mM) were washed and then resuspended in the same medium containing no added P (1021 and RD64 strains) and 0.5 mM IAA, Trp or Ind (1021 strain). Treatments were performed for 3 hours at 30° C.
Alkaline and acid phophatase enzymes under P-limiting conditions were assayed as previously reported (16). Units are reported as nanomoles per minute per milligram of protein. Protein concentrations were determined by the Bradford's assay.

S. meliloti 1021 = experiment: Microarray gene expression of 1021 cells treated with 0.5 mM compound; settings: P-sufficient (13 mM); for pho genes among those significantly affected (microarray): 1021 + 0.5 mM compound vs untreated 1021;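 as to all read-outs here: cells were harvested 3 h after the start of each treatment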
Procedure: For P starvation experiments, cells of 1021 wild-type and RD64 strains were grown at 30° C. to mid exponential phase (OD600=0.6) in RMM broth containing 1% (w/v) mannitol as carbon source and 13 mM P, washed with RMM containing 0 P, resuspended in the same medium and then divided into three cultures. No P (−P), 1.0 mM P (P-starved cells) or 13 mM P (+P cells also named P-sufficient cells) was added into the three cultures, respectively. The P-starved and P-sufficient 1021 wild type cells were treated for 3.0 hours with 0.5 mM IAA. […] To rule out that this bacteria could be partially starved for Trp, RD64 cells were also treated with 0.5 mM Trp and used for microarrays and RT-PCR analyses. […] After 3 hours of each treatment, cell batches were collected, freezed and stored at −80° C. for use in experiments.

[2] = Soluble phosphate release into bacterial free medium containing 5% PR; settings: sterilized medium, level comparable to that released during Mt-RD64 plant growth (115.2 mg/l)
Source text: FIG. 4. Changes in soluble phosphate release into the bacterial free medium containing 5% phosphate rock (PR) as P source (P-limiting conditions for bacteria growing in a minimal media with PR). […] The amounts of each added organic acids derived from the data obtained in HPLC analysis and were reported in the Material and Methods section. Data are the mean±SD of five independent biological experiments (p<0.006). The concentration of soluble phosphate was estimated using a modification of Fiske and Subarrow method as described by […] et al. (37). […] Bacterial free medium was also treated with 0.5 mM IAA solution. A media that simulates growth is a media without bacteria or their supernatant. The media comprises only RP and the organic acids used as purified powder commercially available (SIGMA), the organic acids concentration used are that produced by the bacteria when grown in a defined media (with IAA, or without, or from RFD64).

[3] = 1021 + 0.5 mM Tryptophan vs untreated 1021

N[C@@H](Cc1c[nH]c2ccccc12)C(=O)O [Tryptophan, tryptophan]
expression of pho genes in RD64 cells after addition of compound ([1]; 0.5 mM added to RD64 cells, vs untreated RD64 cells, data not shown): unaffected or slightly reduced
expression level of all five pho genes (RT-PCR) ([1]; P-starved conditions, vs control 1021, compounds 0.5 mM, 3 hours): only slightly induced or unchanged
phoB regulatory gene expression (qRT-PCR) ([1]; compounds 0.5 mM, 3 hours): unaffected
acid phosphatase activity (acid phosphatase): unaffected, or only slightly increased
alkaline phosphatase activity (alkaline phosphatase): unaffected, or only slightly increased
M (log2 ratio of intensities) SMa0707 sma0707 (S. meliloti 1021; [3]): 0.9084
M (log2 ratio of intensities) SMa0711 sma0711 (S. meliloti 1021; [3]): 0.8863
M (log2 ratio of intensities) SMa1007 sma1007 (S. meliloti 1021; [3]): 0.9801
M (log2 ratio of intensities) SMa1073 sma1073 (S. meliloti 1021; [3]): 0.7423
M (log2 ratio of intensities) SMa1087 sma1087 (S. meliloti 1021; [3]): 0.751
M (log2 ratio of intensities) SMa1118 hspC2 (S. meliloti 1021; [3]): 0.8663
M (log2 ratio of intensities) SMa1128 degP4 (S. meliloti 1021; [3]): 1.449
M (log2 ratio of intensities) SMa1321 virB1 (S. meliloti 1021; [3]): 4.445
M (log2 ratio of intensities) SMa2145 sma2145 (S. meliloti 1021; [3]): 0.9145
M (log2 ratio of intensities) SMa2189 sma2189 (S. meliloti 1021; [3]): 0.993
M (log2 ratio of intensities) SMb20585 ggt (S. meliloti 1021; [3]): 1.09
M (log2 ratio of intensities) SMb20672 smb20672 (S. meliloti 1021; [3]): 1.815
M (log2 ratio of intensities) SMb20984 nirB 4 (S. meliloti 1021; [3]): −1.11
M (log2 ratio of intensities) SMb21566 groEL5 (S. meliloti 1021; [3]): −1.021
M (log2 ratio of intensities) SMc00155 aroF (S. meliloti 1021; [3]): −1.565
M (log2 ratio of intensities) SMc00182 smc00182 (S. meliloti 1021; [3]): −1.097
M (log2 ratio of intensities) SMc01169 ald (S. meliloti 1021; [3]): 0.7379
M (log2 ratio of intensities) SMc01293 rplR 3 (S. meliloti 1021; [3]): −0.7637
M (log2 ratio of intensities) SMc01311 tufA (S. meliloti 1021; [3]): −0.7229
M (log2 ratio of intensities) SMc01313 rpsG (S. meliloti 1021; [3]): −0.7518
M (log2 ratio of intensities) SMc01314 rpsL (S. meliloti 1021; [3]): −0.7349
M (log2 ratio of intensities) SMc01636 smc01636 (S. meliloti 1021; [3]): −0.9473
M (log2 ratio of intensities) SMc02507 sitC (S. meliloti 1021; [3]): 1.133
M (log2 ratio of intensities) SMc03253 smc03253 (S. meliloti 1021; [3]): 2.689
M (log2 ratio of intensities) SMc04140 smc04140 (S. meliloti 1021; [3]): 2.032
M (log2 ratio of intensities) SMc04141 gst9 (S. meliloti 1021; [3]): 1.581
M (log2 ratio of intensities) SMc04147 smc04147 (S. meliloti 1021; [3]): 0.8262
M (log2 ratio of intensities) SMc04434 rpmH (S. meliloti 1021; [3]): −0.7758
pho genes among those significantly affected (microarray) (S. meliloti 1021): did not find any pho genes

O=C(O)CCC(O)C(=O)O (centres unmarked) [2-hydroxyglutaric acid]
P solubilization upon exogenous addition of 2-hydroxyglutaric acid [2]: highest

O=C(O)COc1ccc(Cl)cc1Cl [2,4-D, 2,4-dichlorophenoxyacetic acid]
phoB regulatory gene expression (qRT-PCR) ([1]; compounds 0.5 mM, 3 hours): unaffected
pho genes among those significantly affected (microarray) (S. meliloti 1021): did not find any pho genes
M (log2 ratio of intensities) SMa1077 nex18 (S. meliloti 1021; 1021 + 2,4-D vs untreated 1021): 2.581
M (log2 ratio of intensities) SMa1128 degP4 (S. meliloti 1021; 1021 + 2,4-D vs untreated 1021): 1.552
M (log2 ratio of intensities) SMb21221 smb21221 (S. meliloti 1021; 1021 + 2,4-D vs untreated 1021): 1.027
M (log2 ratio of intensities) SMc00151 gph1 (S. meliloti 1021; 1021 + 2,4-D vs untreated 1021): −0.8713
M (log2 ratio of intensities) SMc00335 rpsA (S. meliloti 1021; 1021 + 2,4-D vs untreated 1021): −0.7145
M (log2 ratio of intensities) SMc00363 rpm1 (S. meliloti 1021; 1021 + 2,4-D vs untreated 1021): −0.8021
M (log2 ratio of intensities) SMc00591 smc00591 (S. meliloti 1021; 1021 + 2,4-D vs untreated 1021): 0.8629
M (log2 ratio of intensities) SMc00869 atpF2 (S. meliloti 1021; 1021 + 2,4-D vs untreated 1021): −1.318
M (log2 ratio of intensities) SMc00912 groES1 (S. meliloti 1021; 1021 + 2,4-D vs untreated 1021): −1.272
M (log2 ratio of intensities) SMc01214 smc01214 (S. meliloti 1021; 1021 + 2,4-D vs untreated 1021): −1.039
M (log2 ratio of intensities) SMc01291 rpmD (S. meliloti 1021; 1021 + 2,4-D vs untreated 1021): −0.9964
M (log2 ratio of intensities) SMc01298 rplX (S. meliloti 1021; 1021 + 2,4-D vs untreated 1021): −1.26
M (log2 ratio of intensities) SMc01299 rplN (S. meliloti 1021; 1021 + 2,4-D vs untreated 1021): −1.587
M (log2 ratio of intensities) SMc01300 rpsQ (S. meliloti 1021; 1021 + 2,4-D vs untreated 1021): −0.9524
M (log2 ratio of intensities) SMc01301 rpmC (S. meliloti 1021; 1021 + 2,4-D vs untreated 1021): −2.007
M (log2 ratio of intensities) SMc01319 rplJ (S. meliloti 1021; 1021 + 2,4-D vs untreated 1021): −1.788
M (log2 ratio of intensities) SMc01326 tufB (S. meliloti 1021; 1021 + 2,4-D vs untreated 1021): −1.664
M (log2 ratio of intensities) SMc01858 smc01858 (S. meliloti 1021; 1021 + 2,4-D vs untreated 1021): −1.083
M (log2 ratio of intensities) SMc01883 smc01883 (S. meliloti 1021; 1021 + 2,4-D vs untreated 1021): −0.8788
M (log2 ratio of intensities) SMc02340 smc02340 (S. meliloti 1021; 1021 + 2,4-D vs untreated 1021): −1.408
M (log2 ratio of intensities) SMc02498 atpH (S. meliloti 1021; 1021 + 2,4-D vs untreated 1021): −1.251
M (log2 ratio of intensities) SMc02692 rplY (S. meliloti 1021; 1021 + 2,4-D vs untreated 1021): −0.8486
M (log2 ratio of intensities) SMc02717 leuA1 (S. meliloti 1021; 1021 + 2,4-D vs untreated 1021): −0.8087
M (log2 ratio of intensities) SMc02905 dnaX (S. meliloti 1021; 1021 + 2,4-D vs untreated 1021): −0.7264
M (log2 ratio of intensities) SMc03805 tesB (S. meliloti 1021; 1021 + 2,4-D vs untreated 1021): 0.9991
M (log2 ratio of intensities) SMc03859 rpsP (S. meliloti 1021; 1021 + 2,4-D vs untreated 1021): −0.7104
M (log2 ratio of intensities) SMc03979 gap (S. meliloti 1021; 1021 + 2,4-D vs untreated 1021): −1.065
M (log2 ratio of intensities) SMc04003 rpmJ (S. meliloti 1021; 1021 + 2,4-D vs untreated 1021): −1.331

From patent US9157104B2, “Method to improve phosphate solubilization in plants” (Consiglio Nazionale delle Ricerche, priority 2009, dated 2015)
